From patent US9169254B2, “Spiroimidazolone derivative” (Chugai Seiyaku Kabushiki Kaisha, priority 2009, dated 2015)

Each compound was assayed against T1, human PTH1 receptor (Homo sapiens, UniProt Q03431) (assay: In vitro cAMP signal activity in HKRK-B7 cells (LLC-PK1 cells overexpressing the human PTH1 receptor)). Settings: HKRK-B7 cells; compound at 1×10^−3 M; cAMP produced as percentage of that produced by hPTH(1-34) at 100 nM.
T1 sequence (Q03431 27-593): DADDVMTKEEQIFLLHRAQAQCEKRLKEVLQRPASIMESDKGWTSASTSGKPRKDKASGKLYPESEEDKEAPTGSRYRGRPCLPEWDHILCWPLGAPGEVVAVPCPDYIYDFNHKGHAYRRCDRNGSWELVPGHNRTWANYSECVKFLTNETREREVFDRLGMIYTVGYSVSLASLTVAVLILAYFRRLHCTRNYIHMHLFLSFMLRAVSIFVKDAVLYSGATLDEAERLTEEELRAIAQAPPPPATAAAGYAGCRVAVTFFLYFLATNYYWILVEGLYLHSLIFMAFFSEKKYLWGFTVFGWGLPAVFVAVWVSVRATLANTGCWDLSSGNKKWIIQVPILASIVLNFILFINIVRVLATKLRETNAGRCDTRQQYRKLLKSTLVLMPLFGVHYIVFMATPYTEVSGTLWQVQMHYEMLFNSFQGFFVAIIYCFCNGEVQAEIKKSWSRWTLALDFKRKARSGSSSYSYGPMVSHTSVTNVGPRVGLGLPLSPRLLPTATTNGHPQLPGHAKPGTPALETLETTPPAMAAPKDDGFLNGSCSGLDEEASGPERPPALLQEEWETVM
Assay type: cell-based

Compared with O=C(Nc1ccc(/C=C/S(=O)(=O)N2CCC3(CC2)N=C(C2CCCCC2)NC3=O)c(C(F)(F)F)c1)C1CC1 [Compound 195, cyclopropanecarboxylic acid {4-[(E)-2-(2-cyclohexyl-4-oxo-1,3,8-triaza-spiro[4.5]dec-1-ene-8-sulfonyl)-vinyl]-3-trifluoromethyl-phenyl}-amide], O=C1NC(C2CCCCC2)=NC12CCN(S(=O)(=O)/C=C/c1cccc3c1ccn3CCC(O)CO)CC2 (stereo not drawn) [Compound 480, 2-cyclohexyl-8-{(E)-2-[1-(3,4-dihydroxy-butyl)-1H-indol-4-yl]-ethenesulfonyl}-1,3,8-triaza-spiro[4.5]dec-1-en-4-one] is higher in “cAMP production activity (%)” value: 36% for the first, 44% for the second.

Going from CCCCCCCCCC1=NC2(CCN(S(=O)(=O)/C=C/c3ccc(N4C(=O)COCC4=O)cc3C)CC2)C(=O)N1 [Compound 538, 4-{3-methyl-4-[(E)-2-(2-nonyl-4-oxo-1,3,8-triaza-spiro[4.5]dec-1-ene-8-sulfonyl)-vinyl]-phenyl}-morpholine-3,5-dione] to Cc1cc(N(C)C(N)=O)cc(C)c1/C=C/S(=O)(=O)N1CCC2(CC1)N=C(CCCCCCCS(C)(=O)=O)NC2=O [Compound 1319, 1-(4-{(E)-2-[2-(7-methanesulfonyl-heptyl)-4-oxo-1,3,8-triaza-spiro[4.5]dec-1-ene-8-sulfonyl]-vinyl}-3,5-dimethyl-phenyl)-1-methyl-urea], the “cAMP production activity (%)” value falls from 133% to 5.8%.

Compared with Cc1cc(N2C(=O)CNC2=O)c(C)cc1CCS(=O)(=O)N1CCC2(CC1)N=C(C1CCC(C)CC1)NC2=O (stereo not drawn) [Compound 778, 3-(2,5-dimethyl-4-{2-[2-(4-methyl-cyclohexyl)-4-oxo-1,3,8-triaza-spiro[4.5]dec-1-ene-8-sulfonyl]-ethyl}-phenyl)-imidazolidine-2,4-dione], CCC1CCC(C2=NC3(CCN(S(=O)(=O)CCc4cc(Cl)c(NC(C)=O)cc4C)CC3)C(=O)N2)CC1 (stereo not drawn) [Compound 953, N-(2-Chloro-4-{2-[2-(4-ethyl-cyclohexyl)-4-oxo-1,3,8-triaza-spiro[4.5]dec-1-ene-8-sulfonyl]-ethyl}-5-methyl-phenyl)-acetamide] is higher in “cAMP production activity (%)” value: 57% for the first, 77% for the second.

Going from CNc1cc(C)c(/C=C/[S@TB3](=O)(=O)N2CCC3(CC2)N=C(CCCCCCCCCCCNC(=O)OC(C)(C)C)NC3=O)c(C)c1 [Compound 1106, (11-{8-[(E)-2-(2,6-dimethyl-4-methylamino-phenyl)-ethenesulfonyl]-4-oxo-1,3,8-triaza-spiro[4.5]dec-1-en-2-yl}-undecyl)-carbamic acid tert-butyl ester] to Cc1cc(N(C)C(N)=O)cc(C)c1CCS(=O)(=O)N1CCC2(CC1)N=C(CCCCCCCCCCCN)NC2=O [Compound 1366, 1-(4-{2-[2-(11-Amino-undecyl)-4-oxo-1,3,8-triaza-spiro[4.5]dec-1-ene-8-sulfonyl]-ethyl}-3,5-dimethyl-phenyl)-1-methyl-urea], the “cAMP production activity (%)” value rises from 58% to 103%.

Going from Cc1cc(N(CC(F)(F)F)C(N)=O)ccc1/C=C/S(=O)(=O)N1CCC2(CC1)N=C(c1cccc(OC(F)(F)F)c1)NC2=O [Compound 731, 1-(3-Methyl-4-{(E)-2-[4-oxo-2-(3-trifluoromethoxy-phenyl)-1,3,8-triaza-spiro[4.5]dec-1-ene-8-sulfonyl]-vinyl}-phenyl)-1-(2,2,2-trifluoro-ethyl)-urea] to Cc1cc(N(CCO)C(=O)CO)ccc1/C=C/S(=O)(=O)N1CCC2(CC1)N=C(c1cccc(OC(F)(F)F)c1)NC2=O [Compound 722, 2-Hydroxy-N-(2-hydroxy-ethyl)-N-(3-methyl-4-{(E)-2-[4-oxo-2-(3-trifluoromethoxy-phenyl)-1,3,8-triaza-spiro[4.5]dec-1-ene-8-sulfonyl]-vinyl}-phenyl)-acetamide], the “cAMP production activity (%)” value rises from 54% to 60%.

Compared with Cc1cc(N(C)C(N)=O)cc(C)c1CCS(=O)(=O)N1CCC2(CC1)N=C(CCCCCCCS(C)(=O)=O)NC2=O [Compound 1357, 1-(4-{2-[2-(7-methanesulfonyl-heptyl)-4-oxo-1,3,8-triaza-spiro[4.5]dec-1-ene-8-sulfonyl]-ethyl}-3,5-dimethyl-phenyl)-1-methyl-urea], CCS(=O)(=O)CCCCCCC1=NC2(CCN(S(=O)(=O)CCc3c(C)cc(N(C)C(N)=O)cc3C)CC2)C(=O)N1 [Compound 1320, 1-(4-{2-[2-(6-ethanesulfonyl-hexyl)-4-oxo-1,3,8-triaza-spiro[4.5]dec-1-ene-8-sulfonyl]-ethyl}-3,5-dimethyl-phenyl)-1-methyl-urea] is lower in “cAMP production activity (%)” value: 13% for the first, 10% for the second.

Going from Cc1cc(C(=O)N2CCCC2)ccc1CCS(=O)(=O)N1CCC2(CC1)N=C(c1cccc(C(F)(F)F)c1)NC2=O [Compound 288, 8-{2-[2-methyl-4-(pyrrolidine-1-carbonyl)-phenyl]-ethanesulfonyl}-2-(3-trifluoromethyl-phenyl)-1,3,8-triaza-spiro[4.5]dec-1-en-4-one] to Cc1cc(C(=O)N2CC[C@H](O)C2)ccc1CCS(=O)(=O)N1CCC2(CC1)N=C(c1cccc(C(F)(F)F)c1)NC2=O [Compound 370, 8-{2-[4-((S)-3-hydroxy-pyrrolidine-1-carbonyl)-2-methyl-phenyl]-ethanesulfonyl}-2-(3-trifluoromethyl-phenyl)-1,3,8-triaza-spiro[4.5]dec-1-en-4-one], the “cAMP production activity (%)” value falls from 82% to 66%.

First: [2H]C([2H])([2H])C([2H])([2H])C1=CC[C@H](C2=NC3(CCN([S@TB18](=O)(=O)/C=C/c4c(C)cc(N(C)C(N)=O)cc4C)CC3)C(=O)N2)CC1 [Compound 1129, 1-(4-{(E)-2-[2-(4-[1,1,2,2,2-^2H5]ethyl-cyclohex-3-enyl)-4-oxo-1,3,8-triaza-spiro[4.5]dec-1-ene-8-sulfonyl]-vinyl}-3,5-dimethyl-phenyl)-1-methyl-urea]
Second: CNCc1cc(C)c(/C=C/S(=O)(=O)N2CCC3(CC2)N=C(C2CCC(C)CC2)NC3=O)c(C)c1 (stereo not drawn) [Compound 1289, 8-[(E)-2-(2,6-Dimethyl-4-methylaminomethyl-phenyl)-ethenesulfonyl]-2-(4-methyl-cyclohexyl)-1,3,8-triaza-spiro[4.5]dec-1-en-4-one]
The “cAMP production activity (%)” value of the first is higher: 102% for the first, 17% for the second.

Going from COCCN(C(C)=O)c1cc(C)c(CCS(=O)(=O)N2CCC3(CC2)N=C(C2CCC(CCC(F)(F)F)CC2)NC3=O)c(C)c1 (stereo not drawn) [Compound 756, N-[3,5-dimethyl-4-(2-{4-oxo-2-[4-(3,3,3-trifluoro-propyl)-cyclohexyl]-1,3,8-triaza-spiro[4.5]dec-1-ene-8-sulfonyl}-ethyl)-phenyl]-N-(2-methoxy-ethyl)-acetamide] to Cc1cc(N(C)C(N)=O)cc(C)c1CCS(=O)(=O)N1CCC2(CC1)N=C(C1(CCCC(F)(F)F)CC1)NC2=O [Compound 1048, 1-[3,5-Dimethyl-4-(2-{4-oxo-2-[1-(4,4,4-trifluoro-butyl)-cyclopropyl]-1,3,8-triaza-spiro[4.5]dec-1-ene-8-sulfonyl}-ethyl)-phenyl]-1-methyl-urea], the “cAMP production activity (%)” value rises from 79% to 96%.

Compared with Cc1cc(N(CCO)C(=O)CO)ccc1CCS(=O)(=O)N1CCC2(CC1)N=C(c1cccc(OC(F)(F)F)c1)NC2=O [Compound 930, 2-Hydroxy-N-(2-hydroxy-ethyl)-N-(3-methyl-4-{2-[4-oxo-2-(3-trifluoromethoxy-phenyl)-1,3,8-triaza-spiro[4.5]dec-1-ene-8-sulfonyl]-ethyl}-phenyl)-acetamide], Cc1cc(C(=O)N(C)C)ccc1/C=C/S(=O)(=O)N1CCC2(CC1)N=C(c1cccc(OC(F)(F)F)c1)NC2=O [Compound 231, 3,N,N-trimethyl-4-{(E)-2-[4-oxo-2-(3-trifluoromethoxy-phenyl)-1,3,8-triaza-spiro[4.5]dec-1-ene-8-sulfonyl]-vinyl}-benzamide] is higher in “cAMP production activity (%)” value: 92% for the first, 96% for the second.

Compared with Cc1cc2ccc1CCS(=O)(=O)N1CCC3(CC1)N=C(NC3=O)c1cc(cc(C(F)(F)F)c1)OCCCCCOCCN(CCO)C2=O [Compound 1429], O=C1NC(c2ccc(F)c(C(F)(F)F)c2)=NC12CCN(S(=O)(=O)/C=C/c1cccc3c1ccn3C[C@H](O)CO)CC2 [Compound 643, 8-{(E)-2-[1-((S)-2,3-dihydroxy-propyl)-1H-indol-4-yl]-ethenesulfonyl}-2-(4-fluoro-3-trifluoromethyl-phenyl)-1,3,8-triaza-spiro[4.5]dec-1-en-4-one] is higher in “cAMP production activity (%)” value: 8.9% for the first, 94% for the second.

Going from O=C1NC(C2CCCCC2)=NC12CCN(S(=O)(=O)C/C=C/c1cccc3c1ccn3C[C@H](O)CO)CC2 [Compound 253, 2-Cyclohexyl-8-{(E)-3-[1-((S)-2,3-dihydroxy-propyl)-1H-indol-4-yl]-prop-2-ene-1-sulfonyl}-1,3,8-triaza-spiro[4.5]dec-1-en-4-one] to Cc1cc(N(C)C(N)=O)cc(C)c1CCS(=O)(=O)N1CCC2(CC1)N=C(c1cccc(CCCCCC(F)(F)F)c1)NC2=O [Compound 1345, 1-[3,5-dimethyl-4-(2-{4-oxo-2-[3-(6,6,6-trifluoro-hexyl)-phenyl]-1,3,8-triaza-spiro[4.5]dec-1-ene-8-sulfonyl}-ethyl)-phenyl]-1-methyl-urea], the “cAMP production activity (%)” value rises from 54% to 107%.
